In article PMC3382171 (PLoS ONE, 2012):

Experiments:
Experiment in all cases: biochemical
[1] = target: T1, AuroraB (Homo sapiens, UniProt Q96GD4); settings: read-out: Dundee KSS % inhibition at 1uM
T1 construct: gene AURKB
Experimental: (§1) The METi and RAFi were screened against kinase panels (SelectScreen, Invitrogen; University of Dundee, Division of Signal Transduction Therapy, UK; Upstate Biotechnology/Millipore, Billerica, MA). In these selectivity assays the concentration of ATP was set to the Km value of ATP for each kinase tested to allow for a relative potency comparison between the various kinases. The compounds were tested at 1 µM final concentration. […] (A) Kinase selectivity screen (KSS) performed at Upstate Biotechnology. […] (B) KSS performed at University of Dundee (Division of Signal Transduction Therapy). […] (PDF) Click here for additional data file.

[2] = target: T2, CAMK-1 (Homo sapiens, UniProt Q14012); settings: read-out: Dundee KSS % inhibition at 1uM
T2 construct: gene CAMK1
Experimental: as §1

[3] = target: T3, CAMKKa (Homo sapiens, UniProt Q8N5S9); settings: read-out: Dundee KSS % inhibition at 1uM
T3 construct: gene CAMKK1
Experimental: as §1

[4] = target: CDK2/CyclinA (Homo sapiens, UniProt P24941); settings: read-out: Dundee KSS % inhibition at 1uM
Experimental: as §1

[5] = target: DYRK3 (Homo sapiens, UniProt O43781); settings: read-out: Dundee KSS % inhibition at 1uM
Experimental: as §1

[6] = target: T4, EF2K (Homo sapiens, UniProt O00418); settings: read-out: Dundee KSS % inhibition at 1uM
T4 construct: gene EEF2K
T4 sequence (O00418 whole entry): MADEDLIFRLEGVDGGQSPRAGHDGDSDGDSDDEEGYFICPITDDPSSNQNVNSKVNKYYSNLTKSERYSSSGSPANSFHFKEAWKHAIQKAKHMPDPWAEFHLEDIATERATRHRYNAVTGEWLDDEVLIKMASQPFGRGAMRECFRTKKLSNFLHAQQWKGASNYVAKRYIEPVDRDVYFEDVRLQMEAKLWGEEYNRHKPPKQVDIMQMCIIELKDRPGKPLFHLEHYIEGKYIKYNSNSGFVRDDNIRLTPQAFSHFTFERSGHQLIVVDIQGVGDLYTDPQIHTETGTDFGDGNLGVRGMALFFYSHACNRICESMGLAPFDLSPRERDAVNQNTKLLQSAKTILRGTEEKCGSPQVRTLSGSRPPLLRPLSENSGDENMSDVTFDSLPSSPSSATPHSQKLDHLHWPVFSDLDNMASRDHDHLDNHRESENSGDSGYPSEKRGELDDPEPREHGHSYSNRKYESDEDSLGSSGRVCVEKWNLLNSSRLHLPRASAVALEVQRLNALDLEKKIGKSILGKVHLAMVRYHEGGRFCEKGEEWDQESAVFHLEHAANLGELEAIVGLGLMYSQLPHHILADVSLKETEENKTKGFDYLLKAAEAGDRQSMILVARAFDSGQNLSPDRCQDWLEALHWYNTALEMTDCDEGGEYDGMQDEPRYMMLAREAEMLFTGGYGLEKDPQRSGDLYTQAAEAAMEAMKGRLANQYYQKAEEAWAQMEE
Experimental: as §1

[7] = target: T5, ERK8 (Homo sapiens, UniProt Q8TD08); settings: read-out: Dundee KSS % inhibition at 1uM
T5 construct: gene MAPK15
Experimental: as §1

[8] = target: IGF1R (Homo sapiens, UniProt P08069); settings: read-out: Upstate KSS % inhibition at 1uM
Experimental: as §1

[9] = target: T6, IKKbeta (Homo sapiens, UniProt O14920); settings: read-out: Dundee KSS % inhibition at 1uM
T6 construct: gene IKBKB
Experimental: as §1

[10] = target: T7, MAPKAP-K1b (Homo sapiens, UniProt P51812); settings: read-out: Dundee KSS % inhibition at 1uM
T7 construct: gene RPS6KA3
Experimental: as §1

[11] = target: MARK3 (Homo sapiens, UniProt P27448); settings: read-out: Dundee KSS % inhibition at 1uM
Experimental: as §1

[12] = target: T8, MLCK (Homo sapiens, UniProt Q15746); settings: read-out: Dundee KSS % inhibition at 1uM
T8 construct: gene MYLK
Experimental: as §1

[13] = target: T9, MNK2 (Homo sapiens, UniProt Q9HBH9); settings: read-out: Dundee KSS % inhibition at 1uM
T9 construct: gene MKNK2
Experimental: as §1

[14] = target: T10, MST2 (Homo sapiens, UniProt Q13188); settings: read-out: Dundee KSS % inhibition at 1uM
T10 construct: gene STK3
Experimental: as §1

[15] = target: T11, P70S6K (Homo sapiens, UniProt P23443); settings: read-out: Dundee KSS % inhibition at 1uM
T11 construct: gene RPS6KB1
Experimental: as §1

[16] = target: PIM1 (Homo sapiens, UniProt P11309); settings: read-out: Dundee KSS % inhibition at 1uM
Experimental: as §1

[17] = target: PIM3 (Homo sapiens, UniProt Q86V86); settings: read-out: Dundee KSS % inhibition at 1uM
Experimental: as §1

[18] = target: T12, PKCalpha (Homo sapiens, UniProt P17252); settings: read-out: Dundee KSS % inhibition at 1uM
T12 construct: gene PRKCA
Experimental: as §1

[19] = target: T13, PKD1 (Homo sapiens, UniProt Q15139); settings: read-out: Dundee KSS % inhibition at 1uM
T13 construct: gene PRKD1
T13 sequence (Q15139 whole entry): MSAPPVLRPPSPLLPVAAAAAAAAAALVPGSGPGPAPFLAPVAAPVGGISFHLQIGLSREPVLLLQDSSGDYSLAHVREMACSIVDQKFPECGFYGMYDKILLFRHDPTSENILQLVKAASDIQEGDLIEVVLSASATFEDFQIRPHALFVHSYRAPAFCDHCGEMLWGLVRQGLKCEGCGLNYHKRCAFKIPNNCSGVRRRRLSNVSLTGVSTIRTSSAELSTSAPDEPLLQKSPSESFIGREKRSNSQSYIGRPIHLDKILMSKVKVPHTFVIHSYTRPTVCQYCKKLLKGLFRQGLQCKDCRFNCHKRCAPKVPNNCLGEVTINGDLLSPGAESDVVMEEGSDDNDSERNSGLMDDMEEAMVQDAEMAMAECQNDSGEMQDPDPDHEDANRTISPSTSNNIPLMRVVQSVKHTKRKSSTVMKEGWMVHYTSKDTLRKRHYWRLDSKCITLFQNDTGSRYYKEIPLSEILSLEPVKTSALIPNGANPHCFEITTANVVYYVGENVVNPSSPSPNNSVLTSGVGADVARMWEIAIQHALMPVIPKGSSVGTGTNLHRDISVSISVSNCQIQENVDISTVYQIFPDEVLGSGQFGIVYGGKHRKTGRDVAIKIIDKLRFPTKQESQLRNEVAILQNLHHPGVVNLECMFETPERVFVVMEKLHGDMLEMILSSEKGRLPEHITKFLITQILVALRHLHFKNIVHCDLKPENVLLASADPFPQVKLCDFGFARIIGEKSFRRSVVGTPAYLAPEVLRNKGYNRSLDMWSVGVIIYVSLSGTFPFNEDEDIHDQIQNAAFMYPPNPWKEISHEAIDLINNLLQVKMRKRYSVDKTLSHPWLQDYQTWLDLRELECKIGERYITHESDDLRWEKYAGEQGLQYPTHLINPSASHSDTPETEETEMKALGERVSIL
Experimental: as §1

[20] = target: T14, PRAK (Homo sapiens, UniProt Q8IW41); settings: read-out: Dundee KSS % inhibition at 1uM
T14 construct: gene MAPKAPK5
Experimental: as §1

[21] = target: T15, SGK (Homo sapiens, UniProt O00141); settings: read-out: Dundee KSS % inhibition at 1uM
T15 construct: gene SGK1
Experimental: as §1

[22] = target: SRPK1 (Homo sapiens, UniProt Q96SB4); settings: read-out: Dundee KSS % inhibition at 1uM
Sequence of SRPK1 (Q96SB4 whole entry): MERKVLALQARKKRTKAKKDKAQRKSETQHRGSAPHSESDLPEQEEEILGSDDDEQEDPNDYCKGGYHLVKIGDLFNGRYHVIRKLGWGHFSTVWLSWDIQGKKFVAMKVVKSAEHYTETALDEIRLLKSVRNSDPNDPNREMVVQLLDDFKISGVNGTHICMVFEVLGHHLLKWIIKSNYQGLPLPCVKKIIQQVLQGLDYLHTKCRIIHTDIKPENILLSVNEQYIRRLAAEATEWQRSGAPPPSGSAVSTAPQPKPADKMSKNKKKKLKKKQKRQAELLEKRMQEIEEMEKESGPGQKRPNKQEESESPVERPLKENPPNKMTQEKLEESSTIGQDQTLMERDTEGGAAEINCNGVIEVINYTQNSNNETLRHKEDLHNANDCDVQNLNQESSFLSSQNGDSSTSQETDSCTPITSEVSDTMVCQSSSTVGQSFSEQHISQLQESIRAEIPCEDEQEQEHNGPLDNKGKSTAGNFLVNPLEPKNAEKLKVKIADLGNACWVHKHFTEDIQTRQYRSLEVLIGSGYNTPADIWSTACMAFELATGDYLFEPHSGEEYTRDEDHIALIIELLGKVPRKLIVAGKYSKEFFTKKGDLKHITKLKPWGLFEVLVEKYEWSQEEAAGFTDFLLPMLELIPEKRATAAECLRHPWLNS
Experimental: as §1

[23] = target: mouse LCK (Mus musculus, UniProt P06240); settings: read-out: Dundee KSS % inhibition at 1uM
Experimental: as §1

[24] = target: BLK (Homo sapiens, UniProt P51451); settings: read-out: Upstate KSS % inhibition at 1uM
Experimental: as §1, with “In” for “The METi and RAFi were screened against kinase panels (SelectScreen, Invitrogen; University of Dundee, Division of Signal Transduction Therapy, UK; Upstate Biotechnology/Millipore, Billerica, MA). In”

[25] = target: CSK (Homo sapiens, UniProt P41240); settings: read-out: Upstate KSS % inhibition at 1uM
Experimental: as §1, with “In” for “The METi and RAFi were screened against kinase panels (SelectScreen, Invitrogen; University of Dundee, Division of Signal Transduction Therapy, UK; Upstate Biotechnology/Millipore, Billerica, MA). In”

[26] = target: Fes (Homo sapiens, UniProt P07332); settings: read-out: Upstate KSS % inhibition at 1uM
Experimental: as §1, with “In” for “The METi and RAFi were screened against kinase panels (SelectScreen, Invitrogen; University of Dundee, Division of Signal Transduction Therapy, UK; Upstate Biotechnology/Millipore, Billerica, MA). In”

[27] = target: IRAK4 (Homo sapiens, UniProt Q9NWZ3); settings: read-out: Upstate KSS % inhibition at 1uM
Experimental: as §1, with “In” for “The METi and RAFi were screened against kinase panels (SelectScreen, Invitrogen; University of Dundee, Division of Signal Transduction Therapy, UK; Upstate Biotechnology/Millipore, Billerica, MA). In”

[28] = target: T16, PDGFRalpha (Homo sapiens, UniProt P16234); settings: read-out: Upstate KSS % inhibition at 1uM
T16 construct: gene PDGFRA
Experimental: as §1, with “In” for “The METi and RAFi were screened against kinase panels (SelectScreen, Invitrogen; University of Dundee, Division of Signal Transduction Therapy, UK; Upstate Biotechnology/Millipore, Billerica, MA). In”

[29] = target: T17, PKG1alpha (Homo sapiens, UniProt Q13976); settings: read-out: Upstate KSS % inhibition at 1uM
T17 construct: gene PRKG1; isoform alpha
Experimental: as §1, with “In” for “The METi and RAFi were screened against kinase panels (SelectScreen, Invitrogen; University of Dundee, Division of Signal Transduction Therapy, UK; Upstate Biotechnology/Millipore, Billerica, MA). In”

[30] = target: T18, Ros (Homo sapiens, UniProt P08922); settings: read-out: Upstate KSS % inhibition at 1uM
T18 construct: gene ROS1
T18 sequence (P08922 whole entry): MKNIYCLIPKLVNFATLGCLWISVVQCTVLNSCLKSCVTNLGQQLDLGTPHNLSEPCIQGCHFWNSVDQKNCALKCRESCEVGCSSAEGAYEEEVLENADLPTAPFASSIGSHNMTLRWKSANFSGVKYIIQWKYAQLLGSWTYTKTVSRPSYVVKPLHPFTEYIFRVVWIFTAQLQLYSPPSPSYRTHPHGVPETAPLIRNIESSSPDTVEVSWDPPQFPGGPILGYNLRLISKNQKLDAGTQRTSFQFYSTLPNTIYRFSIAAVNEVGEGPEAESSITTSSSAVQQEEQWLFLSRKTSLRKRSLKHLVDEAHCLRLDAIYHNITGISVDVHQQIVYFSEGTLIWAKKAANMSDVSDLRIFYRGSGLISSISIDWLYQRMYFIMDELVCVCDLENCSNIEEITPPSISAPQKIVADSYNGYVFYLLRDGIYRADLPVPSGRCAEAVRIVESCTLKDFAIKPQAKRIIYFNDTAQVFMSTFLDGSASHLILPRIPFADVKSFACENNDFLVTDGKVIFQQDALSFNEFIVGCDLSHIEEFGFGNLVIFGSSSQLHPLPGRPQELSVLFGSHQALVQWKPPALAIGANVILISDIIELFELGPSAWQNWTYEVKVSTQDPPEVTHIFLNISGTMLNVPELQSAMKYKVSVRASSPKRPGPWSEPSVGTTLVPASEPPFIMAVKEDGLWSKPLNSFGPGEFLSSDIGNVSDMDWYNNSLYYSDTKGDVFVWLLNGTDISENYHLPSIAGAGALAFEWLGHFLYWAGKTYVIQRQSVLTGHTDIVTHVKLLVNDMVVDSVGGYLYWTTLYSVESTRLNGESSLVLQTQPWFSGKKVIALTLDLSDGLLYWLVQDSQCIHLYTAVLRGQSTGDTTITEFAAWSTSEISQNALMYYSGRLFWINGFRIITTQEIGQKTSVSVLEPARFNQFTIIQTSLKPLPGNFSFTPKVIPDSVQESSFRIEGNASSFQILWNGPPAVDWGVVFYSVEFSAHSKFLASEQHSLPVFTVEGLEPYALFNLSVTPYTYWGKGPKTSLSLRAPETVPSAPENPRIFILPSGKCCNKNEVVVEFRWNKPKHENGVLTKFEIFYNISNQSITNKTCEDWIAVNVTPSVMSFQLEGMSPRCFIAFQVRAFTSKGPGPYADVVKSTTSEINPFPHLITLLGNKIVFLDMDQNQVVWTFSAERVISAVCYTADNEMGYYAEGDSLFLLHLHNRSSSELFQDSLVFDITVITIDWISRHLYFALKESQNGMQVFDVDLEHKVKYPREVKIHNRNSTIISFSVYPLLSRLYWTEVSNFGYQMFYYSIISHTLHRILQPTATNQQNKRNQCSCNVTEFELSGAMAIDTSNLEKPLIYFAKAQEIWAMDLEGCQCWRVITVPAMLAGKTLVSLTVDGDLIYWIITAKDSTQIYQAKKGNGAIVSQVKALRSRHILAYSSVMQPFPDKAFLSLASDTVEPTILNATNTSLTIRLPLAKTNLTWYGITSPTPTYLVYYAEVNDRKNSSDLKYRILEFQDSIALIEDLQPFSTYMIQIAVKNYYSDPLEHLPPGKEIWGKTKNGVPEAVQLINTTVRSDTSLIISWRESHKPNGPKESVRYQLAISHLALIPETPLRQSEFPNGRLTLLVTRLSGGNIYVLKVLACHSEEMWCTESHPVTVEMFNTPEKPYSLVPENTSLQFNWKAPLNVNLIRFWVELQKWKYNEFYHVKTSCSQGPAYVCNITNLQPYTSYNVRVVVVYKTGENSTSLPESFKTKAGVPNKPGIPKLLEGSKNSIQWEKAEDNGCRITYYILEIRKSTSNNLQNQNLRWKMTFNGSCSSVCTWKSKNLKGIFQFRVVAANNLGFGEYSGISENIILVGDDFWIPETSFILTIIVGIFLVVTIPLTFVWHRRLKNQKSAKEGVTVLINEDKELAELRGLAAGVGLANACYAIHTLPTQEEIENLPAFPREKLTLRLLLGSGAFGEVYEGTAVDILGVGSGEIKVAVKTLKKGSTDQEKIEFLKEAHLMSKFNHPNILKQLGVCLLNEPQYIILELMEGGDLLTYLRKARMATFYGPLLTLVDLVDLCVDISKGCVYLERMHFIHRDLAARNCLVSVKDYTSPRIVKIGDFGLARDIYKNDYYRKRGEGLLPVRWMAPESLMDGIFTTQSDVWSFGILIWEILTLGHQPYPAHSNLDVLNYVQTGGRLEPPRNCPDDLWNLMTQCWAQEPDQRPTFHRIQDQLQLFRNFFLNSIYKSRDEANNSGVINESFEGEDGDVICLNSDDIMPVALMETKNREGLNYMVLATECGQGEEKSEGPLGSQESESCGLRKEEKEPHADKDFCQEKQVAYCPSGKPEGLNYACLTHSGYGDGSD
Experimental: as §1, with “In” for “The METi and RAFi were screened against kinase panels (SelectScreen, Invitrogen; University of Dundee, Division of Signal Transduction Therapy, UK; Upstate Biotechnology/Millipore, Billerica, MA). In”

[31] = target: T19, SAPK4 (Homo sapiens, UniProt O15264); settings: read-out: Upstate KSS % inhibition at 1uM
T19 construct: gene MAPK13
Experimental: as §1, with “In” for “The METi and RAFi were screened against kinase panels (SelectScreen, Invitrogen; University of Dundee, Division of Signal Transduction Therapy, UK; Upstate Biotechnology/Millipore, Billerica, MA). In”

T1 sequence (Q96GD4 whole entry): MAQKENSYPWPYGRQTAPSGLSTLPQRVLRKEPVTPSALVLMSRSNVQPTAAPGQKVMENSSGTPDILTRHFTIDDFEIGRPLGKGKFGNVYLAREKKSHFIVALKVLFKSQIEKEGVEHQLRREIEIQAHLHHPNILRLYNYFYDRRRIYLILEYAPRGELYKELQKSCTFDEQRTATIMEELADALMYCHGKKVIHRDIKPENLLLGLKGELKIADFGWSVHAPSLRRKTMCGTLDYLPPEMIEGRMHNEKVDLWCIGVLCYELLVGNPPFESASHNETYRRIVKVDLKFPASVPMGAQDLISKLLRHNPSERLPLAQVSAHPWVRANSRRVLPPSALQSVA

## OCCn1cc(-c2cnc3nnn(Cc4ccc5ncccc5c4)c3n2)cn1 [METi, PF-04217903]
[1]
  inhibition at 1 µM: 11.2%
[2]
  inhibition at 1 µM: 12.8%
[3]
  inhibition at 1 µM: 8.9%
[4]
  inhibition at 1 µM: 2.24%
[5]
  inhibition at 1 µM: -18.2%
[6]
  inhibition at 1 µM: -13.1%
[7]
  inhibition at 1 µM: 14.8%
[8]
  inhibition at 1 µM: 103%
[9]
  inhibition at 1 µM: 22.5%
[10]
  inhibition at 1 µM: 24.9%
[11]
  inhibition at 1 µM: 4.4%
[12]
  inhibition at 1 µM: 9.24%
[13]
  inhibition at 1 µM: 13.4%
[14]
  inhibition at 1 µM: 6.16%
[15]
  inhibition at 1 µM: -0.67%
[16]
  inhibition at 1 µM: 4.46%
[17]
  inhibition at 1 µM: 10.7%
[18]
  inhibition at 1 µM: 14.3%
[19]
  inhibition at 1 µM: 6.21%
[20]
  inhibition at 1 µM: 4.01%
[21]
  inhibition at 1 µM: 29.4%
[22]
  inhibition at 1 µM: 13.5%
[23]
  inhibition at 1 µM: 15.7%
[24]
  inhibition at 1 µM: 5%
[25]
  inhibition at 1 µM: -23%
[26]
  inhibition at 1 µM: -61%
[27]
  inhibition at 1 µM: 11%
[28]
  inhibition at 1 µM: -28%
[29]
  inhibition at 1 µM: 3%
[30]
  inhibition at 1 µM: 0%
[31]
  inhibition at 1 µM: -18%
